The source of these data is publication PMC7827085 (Pharmaceutics, 2021).

Molecules are shown by their SMILES.

The target of series [1] is T1, ABCB1/MDR1/Pgp (Homo sapiens, UniProt P08183). In words: in vitro. As to conditions: for Effect on ABCB1-dependent CaAM extrusion (in words): PLB-985/ABCB1 cells, test compounds 0.2–50 µM; for IC50 at 40 min: human. As for the experimental part:
(§1) For the ABC transporter assays, we used both cell-based and membrane-based functional assays. […] The respective transport activities were assayed by measuring the cellular fluorescence of the respective transported substrates Phengreen (ABCG2) and Calcein (ABCB1 and ABCC1).
(§2) The cells were kept on ice until the flow cytometry measurements. All experiments were performed in triplicate and in at least three biological parallels.
(§3) The cells were kept on ice until the flow cytometry measurements. All experiments were performed in triplicate and in at least three biological parallels. […] The PhenGreen (PG) or Calcein signal was detected in the BL1 channel (emission filter: 530/30 nm). Analysis of the data was carried out by the Attune Nxt Cytometer Software v3.1.2 (Thermo Fischer Scientific, Waltham, MA, USA). The inhibition of transporter activity was calculated by comparing the fluorescence in the presence of the test compound to that in the presence of a specific inhibitor providing maximum inhibition. […] Half-maximum inhibition (IC50) values were calculated by using the Origin2019 software (9.6.5.169, OriginLab Corporation, Northampton, MA, USA). […] In these experiments, we measured Hoechst dye extrusion in HeLa cells stably expressing eGFP and the ABCG2 variants driven by the same promoter—the transgenic cells generated by the Sleeping Beauty transposon system. […] For details, see Zámbó et al.). […] The maximum inhibition was defined for each variant as the fluorescence difference of the samples incubated with and without Ko143, respectively. […] Data analysis was performed using the Attune Nxt Cytometer Software v3.1.2. Two samples per condition and three biological replicates were examined in each experiment.
ABCB1 is a high-affinity active efflux transporter of the viability dye Calcein-AM (CaAM). […] Here, we applied this widely used cellular assay (see https://www.solvobiotech.com/services/categories/dye-efflux-assays) to characterize drug interactions of the applied compounds in intact PLB-985 cells, expressing high levels of the ABCB1 protein.

Series [2] deals with T2, ABCC1/MRP1 (Homo sapiens, UniProt P33527). Kind of series: in vitro. Conditions: for Effect on ABCC1-dependent CaAM extrusion (in words): HL60/ABCC1 cells; for IC50 at 40 min: human. As for the experimental part:
as §1, §2, §3
Therefore, we applied this assay to characterize the test drug interactions in intact HL60 cells expressing high levels of the ABCC1 protein.

For series [3], the target named is T3, ABCG2/BCRP (Homo sapiens, UniProt Q9UNQ0).
T3 sequence (Q9UNQ0 1-655): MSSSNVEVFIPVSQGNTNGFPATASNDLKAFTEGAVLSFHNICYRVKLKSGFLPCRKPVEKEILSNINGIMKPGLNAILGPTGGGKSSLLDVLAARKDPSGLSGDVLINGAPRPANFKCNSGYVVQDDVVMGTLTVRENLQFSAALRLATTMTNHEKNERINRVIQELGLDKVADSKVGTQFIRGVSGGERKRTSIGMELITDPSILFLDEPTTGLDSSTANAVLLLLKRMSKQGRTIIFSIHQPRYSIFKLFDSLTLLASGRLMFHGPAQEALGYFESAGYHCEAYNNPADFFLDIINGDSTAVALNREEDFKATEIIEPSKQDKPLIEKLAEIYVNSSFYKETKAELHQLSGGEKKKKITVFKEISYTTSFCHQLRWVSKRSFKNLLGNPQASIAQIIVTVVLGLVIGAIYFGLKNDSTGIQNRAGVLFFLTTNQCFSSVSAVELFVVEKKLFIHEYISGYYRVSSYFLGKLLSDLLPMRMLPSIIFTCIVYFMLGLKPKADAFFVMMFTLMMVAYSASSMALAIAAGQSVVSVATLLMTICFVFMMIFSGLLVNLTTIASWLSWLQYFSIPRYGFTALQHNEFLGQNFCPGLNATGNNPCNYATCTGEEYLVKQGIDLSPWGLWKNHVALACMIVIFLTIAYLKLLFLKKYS
In words: in vitro. Conditions: for IC50 at 40 min: human; for Effect on ABCG2-dependent PG-DA extrusion (in words): PLB-985/ABCG2 cells. As for the experimental part:
as §1, §3
Here, we used both PhenGreen-SK diacetate and Hst dye for these measurements. The PhenGreen (PG) assay is a recently patented method applied for ensuring an efficient ABCG2 transport measurement, as the non-fluorescent PhenGreen diacetate (PG-DA) is actively extruded by ABCG2 and the cellular fluorescence is correlated with ABCG2 transport activity. Therefore, we applied this assay to characterize the test drug interactions in intact PLB-985 cells expressing high levels of the ABCG2 protein. […] ABCG2 inhibition by the test compounds was estimated by their relative (%) inhibition compared to full inhibition by Ko143.

Series [4] addresses T3, ABCG2/BCRP. Kind of series: biochemical. As to conditions: for IC50 at 10 min: human. As for the experimental part: These were employed at 37 °C for 10 min (ABCG2), 1 min (ABCB1), or 3 min (ABCC1), with or without 4 mM Mg-ATP, in a 50 μL final volume. The known reference inhibitors of the transporters (1 µM Ko143 for ABCG2, 1 µM Valspodar for ABCB1, and 200 µM Benzbromarone for ABCC1) served as controls. Each test compound was dissolved in DMSO and a 1 µL volume was added to the samples. After incubation, the samples were filtered and washed, and the substrates in the vesicles were dissolved in 10% SDS and transferred onto another plate. After the addition of a stabilizer, the fluorescence was measured in plate readers (Victor X3 and Enspire Perkin-Elmer, Waltham, MA, USA), while the activity of the radiolabeled substrate was measured by liquid scintillation counting (Perkin Elmer MicroBeta2 liquid scintillation counter, Perkin Elmer, Waltham, MA, USA). ABC transporter-related vesicular transport was calculated by subtracting uptake measured in the presence of Mg-AMP from the values measured in the presence of Mg-ATP.
The effects of the test compounds on ABCG2 activity were also measured in a vesicular transport assay by using inverted membrane vesicles prepared from HEK-293 cells expressing high levels of the ABCG2 transporter.

Series [5] concerns the target T2, ABCC1/MRP1. Conditions: Sf9/ABCC1 membrane vesicles.
Series [6] concerns the target T1, ABCB1/MDR1/Pgp. As to conditions: HEK-293/ABCB1 membrane vesicles.
Series [7] has as its target T1, ABCB1/MDR1/Pgp. Kind of series: in vitro.

T2 sequence (P33527 whole entry): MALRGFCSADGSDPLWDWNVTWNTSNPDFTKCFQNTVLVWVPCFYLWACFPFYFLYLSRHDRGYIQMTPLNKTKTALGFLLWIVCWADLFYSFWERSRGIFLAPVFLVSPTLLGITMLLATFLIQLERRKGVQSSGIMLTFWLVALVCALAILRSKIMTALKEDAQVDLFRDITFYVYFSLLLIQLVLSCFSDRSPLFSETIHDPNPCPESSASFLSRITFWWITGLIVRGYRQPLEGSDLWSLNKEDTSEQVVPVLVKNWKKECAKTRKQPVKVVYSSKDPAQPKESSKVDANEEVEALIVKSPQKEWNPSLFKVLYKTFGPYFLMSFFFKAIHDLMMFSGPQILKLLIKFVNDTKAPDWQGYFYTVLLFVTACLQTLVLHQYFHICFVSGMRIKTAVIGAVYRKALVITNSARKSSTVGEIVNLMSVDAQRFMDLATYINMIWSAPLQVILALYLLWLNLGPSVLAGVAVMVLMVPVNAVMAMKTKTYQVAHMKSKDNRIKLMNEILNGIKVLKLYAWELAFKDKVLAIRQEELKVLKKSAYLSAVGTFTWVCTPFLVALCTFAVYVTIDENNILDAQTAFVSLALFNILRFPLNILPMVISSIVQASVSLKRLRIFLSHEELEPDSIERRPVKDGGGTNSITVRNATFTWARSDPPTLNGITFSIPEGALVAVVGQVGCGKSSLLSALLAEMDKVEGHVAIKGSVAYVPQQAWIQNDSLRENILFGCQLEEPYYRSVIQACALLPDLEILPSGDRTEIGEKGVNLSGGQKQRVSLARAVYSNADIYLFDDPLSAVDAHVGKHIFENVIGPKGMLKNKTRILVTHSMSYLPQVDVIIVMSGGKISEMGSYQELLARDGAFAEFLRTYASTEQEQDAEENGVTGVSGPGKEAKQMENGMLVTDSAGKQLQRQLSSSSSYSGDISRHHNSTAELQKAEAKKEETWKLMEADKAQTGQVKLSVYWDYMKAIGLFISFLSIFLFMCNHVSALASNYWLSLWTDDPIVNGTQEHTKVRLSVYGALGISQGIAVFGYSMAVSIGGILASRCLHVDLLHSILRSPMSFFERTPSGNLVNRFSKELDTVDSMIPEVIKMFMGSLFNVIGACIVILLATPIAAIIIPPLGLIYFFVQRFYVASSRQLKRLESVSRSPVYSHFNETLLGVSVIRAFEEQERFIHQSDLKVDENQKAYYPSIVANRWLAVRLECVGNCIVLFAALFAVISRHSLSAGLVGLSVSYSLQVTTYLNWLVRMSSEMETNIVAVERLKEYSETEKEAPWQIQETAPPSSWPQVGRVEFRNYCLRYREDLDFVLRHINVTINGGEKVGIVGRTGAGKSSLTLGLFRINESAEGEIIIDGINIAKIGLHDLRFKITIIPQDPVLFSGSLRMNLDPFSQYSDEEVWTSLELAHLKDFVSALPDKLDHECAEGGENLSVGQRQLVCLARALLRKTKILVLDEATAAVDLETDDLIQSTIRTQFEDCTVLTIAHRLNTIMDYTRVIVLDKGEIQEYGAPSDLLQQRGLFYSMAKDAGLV
T1 sequence (P08183 whole entry): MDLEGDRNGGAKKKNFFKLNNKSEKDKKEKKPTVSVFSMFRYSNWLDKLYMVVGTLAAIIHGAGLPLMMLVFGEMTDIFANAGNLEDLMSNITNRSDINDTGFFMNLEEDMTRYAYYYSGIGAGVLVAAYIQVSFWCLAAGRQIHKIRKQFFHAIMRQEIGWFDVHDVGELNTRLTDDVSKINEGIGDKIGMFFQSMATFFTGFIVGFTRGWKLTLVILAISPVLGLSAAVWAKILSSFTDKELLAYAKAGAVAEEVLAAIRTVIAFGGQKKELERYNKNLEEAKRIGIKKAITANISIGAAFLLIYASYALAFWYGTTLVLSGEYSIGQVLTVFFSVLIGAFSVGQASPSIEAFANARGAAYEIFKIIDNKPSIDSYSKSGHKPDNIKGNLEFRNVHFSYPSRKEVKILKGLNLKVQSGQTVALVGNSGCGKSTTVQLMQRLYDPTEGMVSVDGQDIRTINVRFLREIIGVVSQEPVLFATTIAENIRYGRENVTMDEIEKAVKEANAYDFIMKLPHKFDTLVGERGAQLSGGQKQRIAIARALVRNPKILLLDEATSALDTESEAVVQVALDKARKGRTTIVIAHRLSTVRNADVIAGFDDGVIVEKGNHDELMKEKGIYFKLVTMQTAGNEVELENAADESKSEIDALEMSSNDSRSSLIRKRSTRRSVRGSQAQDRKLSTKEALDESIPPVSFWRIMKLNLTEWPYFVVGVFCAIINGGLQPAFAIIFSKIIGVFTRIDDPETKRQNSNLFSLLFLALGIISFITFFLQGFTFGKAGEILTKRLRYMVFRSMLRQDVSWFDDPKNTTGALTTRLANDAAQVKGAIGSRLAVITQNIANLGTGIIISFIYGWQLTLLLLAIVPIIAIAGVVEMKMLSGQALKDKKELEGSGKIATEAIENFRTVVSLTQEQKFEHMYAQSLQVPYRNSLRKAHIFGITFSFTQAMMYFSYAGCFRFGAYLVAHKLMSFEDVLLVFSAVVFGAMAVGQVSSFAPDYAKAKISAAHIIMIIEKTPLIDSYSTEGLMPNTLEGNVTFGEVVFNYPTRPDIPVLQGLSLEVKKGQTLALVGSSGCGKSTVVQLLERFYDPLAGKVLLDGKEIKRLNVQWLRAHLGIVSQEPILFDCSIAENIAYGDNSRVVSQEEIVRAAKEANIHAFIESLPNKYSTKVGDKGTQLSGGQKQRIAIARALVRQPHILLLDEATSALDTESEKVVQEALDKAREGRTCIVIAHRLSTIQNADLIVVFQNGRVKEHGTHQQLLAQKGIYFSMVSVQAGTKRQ

In general, IC50 refers to the midpoint of a concentration-inhibition curve. As to `CCC(CC)COC(=O)[C@H](C)N[P@](=O)(OC[C@H]1O[C@@](C#N)(c2ccc3c(N)ncnn23)[C@H](O)[C@@H]1O)Oc1ccccc1` [remdesivir], at ABCB1/MDR1/Pgp [1], the “Effect on ABCB1-dependent CaAM extrusion (in words)” value was “did not significantly inhibit” and the IC50 at 40 min was more than 50 µM. Further, at ABCC1/MRP1 [2], the “Effect on ABCC1-dependent CaAM extrusion (in words)” value was “did not significantly inhibit”. This compound also registered an IC50 at 40 min at ABCG2/BCRP [3] of more than 50 µM. At ABCG2/BCRP [4], the IC50 was more than 20 µM and the IC50 at 10 min is more than 50 µM. Moreover, at ABCC1/MRP1 [5], the “Concentration above which ABCC1 vesicular ETGB transport was stimulated” value is on record as “above 25 μM” and the “Effect on ABCC1 vesicular ETGB transport (in words)” value is recorded as “significantly stimulated”.

Regarding `NC(=O)c1nc(F)c[nH]c1=O` [favipiravir], the “Effect on ABCB1 ATP-dependent NMQ uptake (in words)” value at ABCB1/MDR1/Pgp [6] is on record as “no inhibitory effect”. At ABCB1/MDR1/Pgp [7] (probe 3H-N-methyl-quinidine (NMQ), 1 µM), this compound returned an IC50 at 1 min of more than 50 µM. In addition, the “Effect on ABCB1-dependent CaAM extrusion (in words)” value at ABCB1/MDR1/Pgp [1] is listed as “did not significantly inhibit”. In addition, the IC50 at 40 min at ABCB1/MDR1/Pgp [1] (intact PLB-985 cells expressing ABCB1, probe Calcein-AM, 0.25 µM) was more than 50 µM; at ABCC1/MRP1 [2] (intact HL60 cells expressing ABCC1, probe Calcein-AM, 0.25 µM) it was more than 50 µM; against ABCG2/BCRP [3] (intact PLB-985 cells expressing ABCG2, probe PhenGreen-SK diacetate, 0.25 µM), more than 50 µM. Also, at ABCC1/MRP1 [2], the “Effect on ABCC1-dependent CaAM extrusion (in words)” value is recorded as “did not significantly inhibit”. For the same compound, the “Effect on ABCG2-dependent PG-DA extrusion (in words)” value on ABCG2/BCRP [3] was “practically no effect”. In addition, the half-maximal inhibitory concentration (IC50) at 10 min against ABCG2/BCRP [4] (probe lucifer yellow, 5 µM) is more than 50 µM. Further, the “Effect on ABCC1 vesicular ETGB transport (in words)” value at ABCC1/MRP1 [5] is listed as “practically no effect”.

With `CCN(CCO)CCCC(C)Nc1ccnc2cc(Cl)ccc12` (centres unmarked) [hydroxychloroquine], the “Effect on ABCB1 ATP-dependent NMQ uptake (in words)” value on ABCB1/MDR1/Pgp [6] is listed as “practically no effect”. The IC50 at 1 min on ABCB1/MDR1/Pgp [7] (Estimated Transporter Inhibition IC50, ABCB1 vesicular assay, ATP-dependent NMQ uptake, HEK-293/ABCB1 inverted membrane vesicles, '-' = no inhibition) was more than 50 µM. Further, at ABCB1/MDR1/Pgp [1], the “Effect on ABCB1-dependent CaAM extrusion (in words)” value is “practically no effect” and the IC50 at 40 min is more than 50 µM. In addition, at ABCC1/MRP1 [2], the “Effect on ABCC1-dependent CaAM extrusion (in words)” value is on record as “practically no effect” and the IC50 at 40 min was more than 50 µM. In addition, at ABCG2/BCRP [3], the “Effect on ABCG2-dependent PG-DA extrusion (in words)” value is given as “practically no effect” and the IC50 at 40 min is more than 50 µM. Further, the “Effect on ABCG2 ATP-dependent LY uptake (in words)” value on ABCG2/BCRP [4] (HEK-293/ABCG2 membrane vesicles) was “practically no effect”. Further, the IC50 at 10 min on ABCG2/BCRP [4] is more than 50 µM. Moreover, on ABCC1/MRP1 [5], the “Effect on ABCC1 vesicular ETGB transport (in words)” value is listed as “practically no effect”.
